According to the NIST ThermoML archive (doi:10.1016/j.jct.2012.03.020):
± gives the expanded uncertainty stated by the source.

Assays:
[1] = refractive index (Na D-line) (dimensionless); mn = molality of the nth substance listed, in mol/kg; conditions: 101 kPa, Liquid, Standard Abbe refractometry
[2] = mn = molality of the nth substance listed, in mol/kg; conditions: 101 kPa, Liquid, Pycnometric method

Cc1ccc(C(=O)N(O)c2ccccc2)cc1[N+](=O)[O-] [N-hydroxy-4-methyl-3-nitro-N-phenylbenzamide] + CN(C)C=O
Conditions | mass density, 298.15 K [kg/m3] | mass density, 303.15 K [kg/m3] | mass density, 308.15 K [kg/m3] | mass density, 313.15 K [kg/m3] | refractive index, 298.15 K | refractive index, 303.15 K | refractive index, 308.15 K | refractive index, 313.15 K
[1], m1 = 0.0184 | – | – | – | – | 1.4391 ± 0.0005 | 1.435 ± 0.0005 | 1.432 ± 0.0005 | 1.4299 ± 0.0005
[1], m1 = 0.0368 | – | – | – | – | 1.4406 ± 0.0005 | 1.437 ± 0.0005 | 1.4343 ± 0.0005 | 1.432 ± 0.0005
[1], m1 = 0.0551 | – | – | – | – | 1.442 ± 0.0005 | 1.439 ± 0.0005 | 1.436 ± 0.0005 | 1.434 ± 0.0005
[1], m1 = 0.0735 | – | – | – | – | 1.444 ± 0.0005 | 1.441 ± 0.0005 | 1.438 ± 0.0005 | 1.4354 ± 0.0004
[1], m1 = 0.0919 | – | – | – | – | 1.447 ± 0.0005 | 1.4441 ± 0.0005 | 1.44 ± 0.0005 | 1.437 ± 0.0005
[1], m1 = 0.1103 | – | – | – | – | 1.4483 ± 0.0004 | 1.4455 ± 0.0004 | 1.442 ± 0.0005 | 1.439 ± 0.0005
[1], m1 = 0.1286 | – | – | – | – | 1.4496 ± 0.0005 | 1.4466 ± 0.0004 | 1.443 ± 0.0005 | 1.441 ± 0.0005
[1], m1 = 0.147 | – | – | – | – | 1.452 ± 0.0005 | 1.448 ± 0.0005 | 1.446 ± 0.0005 | 1.4429 ± 0.0005
[1], m1 = 0.1654 | – | – | – | – | 1.4535 ± 0.0005 | 1.45 ± 0.0005 | 1.448 ± 0.0005 | 1.444 ± 0.0004
[1], m1 = 0.1838 | – | – | – | – | 1.455 ± 0.0005 | 1.452 ± 0.0005 | 1.4494 ± 0.0004 | 1.445 ± 0.0005
[2], m1 = 0.0184 | 947.8 ± 0.6 | 942.4 ± 0.5 | 938.4 ± 0.6 | 933.1 ± 0.6 | – | – | – | –
[2], m1 = 0.0368 | 950.2 ± 0.6 | 944.9 ± 0.6 | 941 ± 0.6 | 935.8 ± 0.6 | – | – | – | –
[2], m1 = 0.0551 | 952.6 ± 0.6 | 947.4 ± 0.6 | 943.5 ± 0.6 | 938.4 ± 0.6 | – | – | – | –
[2], m1 = 0.0735 | 954.8 ± 0.6 | 949.7 ± 0.6 | 945.9 ± 0.6 | 940.9 ± 0.6 | – | – | – | –
[2], m1 = 0.0919 | 957 ± 0.6 | 952 ± 0.5 | 948.2 ± 0.6 | 943.3 ± 0.6 | – | – | – | –
[2], m1 = 0.1103 | 959.1 ± 0.5 | 954.2 ± 0.5 | 950.4 ± 0.6 | 945.7 ± 0.6 | – | – | – | –
[2], m1 = 0.1286 | 961.1 ± 0.5 | 956.3 ± 0.5 | 952.6 ± 0.5 | 947.9 ± 0.6 | – | – | – | –
[2], m1 = 0.147 | 963.1 ± 0.5 | 958.4 ± 0.5 | 954.7 ± 0.5 | 950.1 ± 0.6 | – | – | – | –
[2], m1 = 0.1654 | 965 ± 0.5 | 960.4 ± 0.5 | 956.7 ± 0.5 | 952.2 ± 0.6 | – | – | – | –
[2], m1 = 0.1838 | 966.9 ± 0.5 | 962.3 ± 0.5 | 958.7 ± 0.5 | 954.3 ± 0.6 | – | – | – | –

O=C(c1ccc([N+](=O)[O-])cc1)N(O)c1ccccc1 [N-hydroxy-4-nitro-N-phenylbenzamide] + CN(C)C=O
Conditions | mass density, 298.15 K [kg/m3] | mass density, 303.15 K [kg/m3] | mass density, 308.15 K [kg/m3] | mass density, 313.15 K [kg/m3] | refractive index, 298.15 K | refractive index, 303.15 K | refractive index, 308.15 K | refractive index, 313.15 K
[1], m1 = 0.0234 | – | – | – | – | 1.428 ± 0.0004 | 1.4264 ± 0.0004 | 1.4242 ± 0.0004 | 1.4223 ± 0.0004
[1], m1 = 0.0469 | – | – | – | – | 1.4289 ± 0.0004 | 1.4274 ± 0.0004 | 1.4254 ± 0.0004 | 1.4235 ± 0.0004
[1], m1 = 0.0703 | – | – | – | – | 1.4294 ± 0.0004 | 1.4279 ± 0.0004 | 1.4259 ± 0.0004 | 1.4244 ± 0.0004
[1], m1 = 0.0938 | – | – | – | – | 1.4299 ± 0.0004 | 1.4285 ± 0.0004 | 1.4266 ± 0.0004 | 1.4249 ± 0.0004
[1], m1 = 0.1172 | – | – | – | – | 1.43 ± 0.0004 | 1.429 ± 0.0004 | 1.4271 ± 0.0004 | 1.4258 ± 0.0004
[1], m1 = 0.1407 | – | – | – | – | 1.4305 ± 0.0004 | 1.4295 ± 0.0004 | 1.4276 ± 0.0004 | 1.4266 ± 0.0004
[1], m1 = 0.1641 | – | – | – | – | 1.4315 ± 0.0004 | 1.4302 ± 0.0004 | 1.4286 ± 0.0004 | 1.4271 ± 0.0004
[1], m1 = 0.1876 | – | – | – | – | 1.4325 ± 0.0004 | 1.4311 ± 0.0004 | 1.4292 ± 0.0004 | 1.4275 ± 0.0004
[1], m1 = 0.211 | – | – | – | – | 1.4329 ± 0.0004 | 1.4319 ± 0.0004 | 1.4301 ± 0.0004 | 1.4284 ± 0.0004
[1], m1 = 0.2345 | – | – | – | – | 1.433 ± 0.0004 | 1.4322 ± 0.0004 | 1.4304 ± 0.0004 | 1.4291 ± 0.0004
[2], m1 = 0.0234 | 947.5 ± 0.5 | 942.1 ± 0.5 | 938.1 ± 0.6 | 932.8 ± 0.6 | – | – | – | –
[2], m1 = 0.0469 | 949.7 ± 0.5 | 944.4 ± 0.5 | 940.5 ± 0.5 | 935.3 ± 0.6 | – | – | – | –
[2], m1 = 0.0703 | 951.9 ± 0.5 | 946.7 ± 0.5 | 942.8 ± 0.5 | 937.7 ± 0.6 | – | – | – | –
[2], m1 = 0.0938 | 954 ± 0.5 | 948.9 ± 0.5 | 945.1 ± 0.5 | 940 ± 0.6 | – | – | – | –
[2], m1 = 0.1172 | 956.1 ± 0.5 | 951.1 ± 0.5 | 947.3 ± 0.5 | 942.3 ± 0.6 | – | – | – | –
[2], m1 = 0.1407 | 958.2 ± 0.5 | 953.2 ± 0.5 | 949.5 ± 0.5 | 944.5 ± 0.6 | – | – | – | –
[2], m1 = 0.1641 | 960.2 ± 0.5 | 955.3 ± 0.5 | 951.6 ± 0.5 | 946.7 ± 0.6 | – | – | – | –
[2], m1 = 0.1876 | 962.2 ± 0.5 | 957.4 ± 0.5 | 953.7 ± 0.5 | 948.8 ± 0.6 | – | – | – | –
[2], m1 = 0.211 | 964.2 ± 0.5 | 959.4 ± 0.5 | 955.8 ± 0.5 | 950.8 ± 0.6 | – | – | – | –
[2], m1 = 0.2345 | 966.1 ± 0.5 | 961.4 ± 0.5 | 957.8 ± 0.5 | 952.9 ± 0.6 | – | – | – | –

O=C(c1ccccc1)N(O)c1ccccc1 [N-phenylbenzohydroxamic acid] + CN(C)C=O
Conditions | mass density, 298.15 K [kg/m3] | mass density, 303.15 K [kg/m3] | mass density, 308.15 K [kg/m3] | mass density, 313.15 K [kg/m3] | refractive index, 298.15 K | refractive index, 303.15 K | refractive index, 308.15 K | refractive index, 313.15 K
[1], m1 = 0.0234 | – | – | – | – | 1.4275 ± 0.0004 | 1.426 ± 0.0004 | 1.4238 ± 0.0004 | 1.422 ± 0.0004
[1], m1 = 0.0469 | – | – | – | – | 1.4277 ± 0.0004 | 1.4269 ± 0.0004 | 1.4249 ± 0.0004 | 1.423 ± 0.0004
[1], m1 = 0.0703 | – | – | – | – | 1.428 ± 0.0004 | 1.4271 ± 0.0004 | 1.4259 ± 0.0004 | 1.424 ± 0.0004
[1], m1 = 0.0938 | – | – | – | – | 1.4285 ± 0.0004 | 1.4274 ± 0.0004 | 1.4266 ± 0.0004 | 1.425 ± 0.0004
[1], m1 = 0.1172 | – | – | – | – | 1.4288 ± 0.0004 | 1.4275 ± 0.0004 | 1.427 ± 0.0004 | 1.4261 ± 0.0004
[1], m1 = 0.1407 | – | – | – | – | 1.4289 ± 0.0004 | 1.428 ± 0.0004 | 1.4273 ± 0.0004 | 1.4265 ± 0.0004
[1], m1 = 0.1641 | – | – | – | – | 1.4295 ± 0.0004 | 1.4285 ± 0.0004 | 1.4276 ± 0.0004 | 1.4271 ± 0.0004
[1], m1 = 0.1876 | – | – | – | – | 1.43 ± 0.0004 | 1.4289 ± 0.0004 | 1.428 ± 0.0004 | 1.4273 ± 0.0004
[1], m1 = 0.211 | – | – | – | – | 1.4305 ± 0.0004 | 1.4295 ± 0.0004 | 1.4282 ± 0.0004 | 1.4274 ± 0.0004
[1], m1 = 0.2345 | – | – | – | – | 1.431 ± 0.0004 | 1.43 ± 0.0004 | 1.4288 ± 0.0004 | 1.4275 ± 0.0004
[2], m1 = 0.0234 | 947.5 ± 0.5 | 942.1 ± 0.5 | 938.1 ± 0.6 | 932.9 ± 0.6 | – | – | – | –
[2], m1 = 0.0469 | 949.7 ± 0.5 | 944.4 ± 0.5 | 940.5 ± 0.5 | 935.4 ± 0.6 | – | – | – | –
[2], m1 = 0.0703 | 951.8 ± 0.5 | 946.6 ± 0.5 | 942.8 ± 0.5 | 937.8 ± 0.6 | – | – | – | –
[2], m1 = 0.0938 | 953.9 ± 0.5 | 948.8 ± 0.5 | 945.1 ± 0.5 | 940.1 ± 0.6 | – | – | – | –
[2], m1 = 0.1172 | 955.9 ± 0.5 | 950.9 ± 0.5 | 947.3 ± 0.5 | 942.4 ± 0.6 | – | – | – | –
[2], m1 = 0.1407 | 957.9 ± 0.5 | 953 ± 0.5 | 949.5 ± 0.5 | 944.5 ± 0.6 | – | – | – | –
[2], m1 = 0.1641 | 959.9 ± 0.5 | 954.9 ± 0.5 | 951.5 ± 0.5 | 946.6 ± 0.6 | – | – | – | –
[2], m1 = 0.1876 | 961.8 ± 0.5 | 956.9 ± 0.5 | 953.6 ± 0.5 | 948.6 ± 0.6 | – | – | – | –
[2], m1 = 0.211 | 963.7 ± 0.5 | 958.8 ± 0.5 | 955.6 ± 0.5 | 950.6 ± 0.6 | – | – | – | –
[2], m1 = 0.2345 | 965.4 ± 0.5 | 960.7 ± 0.5 | 957.5 ± 0.5 | 952.5 ± 0.6 | – | – | – | –
